Results on 14 compounds are retold here after patent publication US20040204577A1, “Novel peptide-forming enzyme gene” (Ajinomoto Co., Inc., priority 2003, published 2004).

Where a SMILES comes first, the peptide text is derived from it. [ ]: non-standard residue; d: D form. The star is where a group is joined. 2Nal = N[C@@H](Cc1ccc2ccccc2c1)C(=O)O; Cha = N[C@@H](CC1CCCCC1)C(=O)O; Tle = CC(C)(C)[C@H](N)C(=O)O; Boc = CC(C)(C)OC(=O)*; tBu = CC(C)(C)*

What all share (type): biochemical, Empedobacter brevis
Assay [1] concerns peptide-forming enzyme (Mono S fraction enzyme). In words: Enzyme substrate specificity (1)-(10), (13), (14): peptide production. As to conditions: 0.1 unit enzyme, 25° C. Also on record: key: +: those for which production was confirmed but which were unable to be quantified due to the absence of a standard; a trace amount. As for the experimental part: (§1) Ester specificity was examined in the case of using L-amino acid ester for the carboxy component. 2 μl of the same enzyme fraction as used in Example 5 was added to 100 μl of 100 mM borate buffer (pH 9.0) containing the carboxy components indicated in Table 4 at 100 mM, 200 mM L-glutamine and 10 mM EDTA, and allowed to react at 25° C. for 2 hours. HCl represents hydrochloride in Table 4.
(§2) Peptide production was examined in the case of using L-alanine methyl ester for the carboxy component and using various L-amino acids for the amine component.
(§3) Peptide production was examined in the case of using various types of L-amino acid methyl esters for the carboxy component and using L-glutamine for the amine component. 2 μl of the same enzyme fraction as used in Example 5 was added to 100 μl of 100 mM borate buffer (pH 9.0) containing the L-amino acid methyl ester hydrochloride salts (AA-OMe.HCl) shown in Table 6 at 100 mM, 150 mM L-glutamine and 10 mM EDTA, and allowed to react at 25° C. for 3 hours. […] Furthermore, Tween-80 was added to the reaction system to a final concentration of 0.1% in the case of using L-Trp-OMe and L-Tyr-OMe.
(§4) Peptide production was examined in the case of using various L-amino acid methyl esters for the carboxy component and various L-amino acids for the amine component. 2 μl of the same enzyme fraction as used in Example 5 was added to 100 μl of 100 mM borate buffer (pH 9.0) containing the L-amino acid methyl ester hydrochloride salts (AA-OMe.HCl) shown in Table 7 at 100 mM, the L-amino acids shown in Table 7 at 150 mM and 10 mM EDTA, and allowed to react at 25° C. for 3 hours. The “tr” indicates a trace amount. Furthermore, Tween-80 was added to the reaction system to a final concentration of 0.1% in the case of using L-Trp-OMe.
Peptide production was examined in the case of using the L or D forms of various amino acid methyl esters for the carboxy component, and the L or D forms of various amino acids for the amine component. […]

Assay [2] shares this test system. Described as above. The note with it: 0.1 unit enzyme, 25° C. More on the design: key: +: those peptides for which production was confirmed but which were unable to be quantified due to the absence of a standard; a trace amount. The protocol: as §1, §2, §3, §4
Peptide production was examined in the case of using the L or D forms of various amino acid methyl esters for the carboxy component, and the L or D forms of various amino acids for the amine component. 2 μl of the same enzyme fraction as used in Example 5 was added to 100 μl of 100 mM borate buffer (pH 9.0) containing the various amino acid methyl ester hydrochloride salts (AA-OMe HCl) shown in Table 8 at 100 mM, the various amino acids shown in Table 8 at 150 mM and 10 mM EDTA, and allowed to react at 25° C. for 3 hours. The “tr” indicates a trace amount.
Peptide production was examined using various L-amino acid amides for the carboxy component, and various L-amino acids for the amine component. 2 μl of the same enzyme fraction as that used in Example 5 was added to 100 μl of 100 mM borate buffer (pH 9.0) containing the L-amino acid amide hydrochloride salt (M-NH2.HCl) shown in Table 9 at 100 mM, the L-amino acids shown in Table 9 at 150 mM and 10 mM EDTA, and allowed to react at 25° C. for 3 hours.
Peptide production was examined in the case of using various L-alanine methyl esters for the carboxy component and C-protected L-amino acids for the amine component. 2 μl of the same enzyme fraction as used in Example 5 was added to 100 μl of 100 mM borate buffer (pH 9.0) containing the L-alanine methyl ester hydrochloride hydrochloride salt (Ala-OMe.HCl) shown in Table 10 at 100 mM, the L-amino acid amide hydrochloride salts shown in Table 10 at 150 mM and 10 mM EDTA, and allowed to react at 25° C. for 3 hours.
Peptide production was examined in the case of using various amino acid methyl esters for the carboxy component and methylamine for the amine component. 2 μl of the same enzyme fraction as used in Example 5 was added to 100 μl of 100 mM borate buffer (pH 9.0) containing the amino acid methyl ester hydrochloride salt (M-OMe.HCl) shown in Table 11 at 100 mM, the methylamine shown in Table 11 at 150 mM and 10 mM EDTA, and allowed to react at 25° C. for 3 hours.
Peptide production was examined in the case of using […] for the carboxy component or β-amino acid for the amine component.

The test system is the same in assay [3]. In words: Production of L-alanyl-L-glutamine from L-alanine methyl ester and L-glutamine with enzyme fraction. As to conditions: 100 mM L-alanine methyl ester hydrochloride, 200 mM L-glutamine, 10 mM EDTA, pH 9.0, 18° C.; FIG. 3. As for the experimental part: On the other hand, there was hardly any production of L-Ala-L-Gln observed in an enzyme-non-added lot, and the […] was only about 0.07 mM after reacting for 120 minutes.

For assay [4] the test system is unchanged. Briefly: Enzyme substrate specificity (1)-(10), (13), (14): peptide production. The note with it: L-amino acid ester 100 mM, peptide (amine component) 150 mM, pH 9.0, 25° C., 3 hours. The method in brief:
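Mono S enzyme fraction in 100 mM borate buffer (pH 9.0) with 10 mM EDTA and 100 mM carboxy component (amino acid methyl esters or amides); amine components (L-glutamine, amino acids, amino acid amides or methylamine) at 150 mM, or 200 mM L-glutamine with varied esters. Reactions ran at 25° C for 2–3 hours; 0.1% Tween-80 added for Trp/Tyr-OMe.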

The test system is the same in assay [5]. Briefly: Enzyme inhibitors: effects on the production of L-alanyl-L-glutamine.
The mark [6] stands for this setting: carboxy component 100 mM, amine component 150 mM, reaction time 2 hr.
Setting [7] is: inhibitor at 10 mM, borate buffer pH 9.0, 25° C., 5 minutes, 100 = absence of enzyme inhibitor.
The mark [8] stands for this setting: carboxy component 100 mM, amine component 150 mM, reaction time 3 hr.
[9] abbreviates: carboxy component 40 mM, amine component 40 mM, reaction time 3 hr.

Take `C[C@H](N)C(=O)N[C@@H](Cc1ccc2ccccc2c1)C(=O)O` [H-Ala-2-Nal-OH] (H-Ala-[2Nal]-OH): in assay [1] (carboxy component 20 mM, amine component 20 mM, reaction time 3 hr), the Produced peptide entry is reported as “+”.

As to `CC(C)(C)OC(=O)NCCCC[C@H](N)C(=O)N[C@@H](CCC(N)=O)C(=O)O` [H-Lys(Boc)-Gln-OH] (H-Lys(Boc)-Gln-OH), the Produced peptide entry in assay [1] (setting [6]) is given as “+”.

As for `NC(=O)CC[C@H](NC(=O)[C@@H](N)Cc1ccc(Cl)cc1)C(=O)O` [H-Cl-F-Phe-H-Gln-OH], the Produced peptide result in assay [2] (carboxy component 25 mM, amine component 50 mM, reaction time 3 hr) was “tr”.

For the compound L-Ala-L-Ala-L-Gln, in assay [3], the “Peptide formed, enzyme-added lot” value is 1.3 mM. The same compound showed a Produced peptide in assay [4] of 15.2 mM.

On to `CCN1C(=O)C=CC1=O` [N-Ethyl maleimide], for which the “Relative activity of L-Ala-L-Gln production” value (“Relative activity” for short) in assay [5] (setting [7]) came out at 110%.

Consider `CN[C@@H](C)C(=O)N[C@@H](Cc1ccccc1)C(=O)O` [H-N-Me-Ala-Phe-OH], for which the Produced peptide result in assay [2] (setting [8]) is recorded as “tr”.

Consider `CC(C)(C)[C@H](N)C(=O)N[C@@H](CCC(N)=O)C(=O)O` [H-t-Leu-H-Gln-OH] (H-[Tle]-Gln-OH), for which the Produced peptide result in assay [2] (setting [8]) is “tr”.

As for `NC(=O)CC[C@H](NC(=O)[C@@H](N)Cc1ccc(F)cc1)C(=O)O` [H-p-F-Phe-H-Gln-OH], the Produced peptide entry in assay [2] (setting [8]) was “tr”.

On to `CC(C)(C)OC[C@H](N)C(=O)N[C@@H](CCC(N)=O)C(=O)O` [H-Ser(tBu)-Gln-OH] (H-Ser(tBu)-Gln-OH), for which the Produced peptide entry in assay [2] (setting [6]) is on record as “tr”.

As for `c1cnc2c(c1)ccc1cccnc12` [o-Phenanthroline, o-phenanthroline], the “Relative activity” value in assay [5] (setting [7]) was found to be 96%.

`O=C(O)CI` [Monoiodoacetate]: the “Relative activity” value in assay [5] (pH 9) amounted to 101%.

On to `NC(=O)CC[C@H](NC(=O)[C@@H](N)Cc1ccc2ccccc2c1)C(=O)O` [H-2-Nal-H-Gln-OH] (H-[2Nal]-Gln-OH), for which, in assay [2] (setting [9]), the Produced peptide entry was “tr”.

Take `N[C@@H](CC1CCCCC1)C(=O)N[C@@H](Cc1ccccc1)C(=O)O` [H-CHA-Phe-OH] (H-[Cha]-Phe-OH): the Produced peptide result in assay [1] (setting [9]) is on record as “+”.

For `O=S(=O)(F)Cc1ccccc1` [Phenylmethylsulfonyl fluoride, phenylmethylsulfonyl fluoride], the “Relative activity” value in assay [5] (setting [7]) came out at 115%. The “Inhibition of the enzyme (in words)” value in assay [5] (serine enzyme inhibitors at 10 mM) is “not inhibited”.
